# In patent US9611249B2, “1H-indazole-3-carboxamide compounds as glycogen synthase kinase 3 beta inhibitors” (AZIENDE CHIMICHE RIUNITE ANGELINI FRANCESCO A.C.R.A.F. …, priority 2012, dated 2017):
# Experiments:
# PAK1 (h) = PAK1 (h) (Homo sapiens (Human), UniProt Q13153); experiment: Kinase selectivity panel: PAK1 (h); format: biochemical; settings: 10 μM in duplicate, read-out: % inhibition of control values
# Protocol: (§1) (a) Compounds 1 and 2 were tested against a panel of 60 kinases in order to assess their selectivity. The assays were chosen taking into consideration the diversity of assay families.
# (§2) Tested kinases were representative of following kinase sub-families: • protein-serine/threonine kinases; • protein-tyrosine kinases; • other kinases; and • atypical kinases.
# (§3) Human recombinant kinases were incubated in the presence of specific peptide substrates plus ATP for different times (10, 15, 30, 60 or 90 minutes) at 22° C. Phosphorylated substrate was detected by LANCE or HTRF technology (CISBIO, MA, USA). The compounds were tested at 10 μM in duplicate.
# (§4) The results are expressed as a percentage of inhibition of control specific activity obtained in the presence of the test compounds and are reported in the following Table 5.
# (§5) (b) Compounds 3, 8, 29 and 31 were tested against the same panel of 60 kinases under the same conditions described above for compounds 1 and 2.
# (§6) The results are expressed as a percent of inhibition of control specific activity obtained in the presence of the test compounds and are reported in the following Table 6.
# AMPKalpha = experiment: Kinase selectivity panel: AMPKalpha; format: biochemical, human; settings: 10 μM in duplicate
# Protocol: as §1, §2, §3, §4, §5, §6
# MEK1/MAP2K1 (h) = MEK1/MAP2K1 (h) (Homo sapiens (Human), UniProt Q02750); experiment: Kinase selectivity panel: MEK1/MAP2K1 (h); format: biochemical; settings: 10 μM in duplicate, read-out: % inhibition of control values
# Protocol: as §1, §2, §3, §4, §5, §6
# RSK2 (h) = RSK2 (h) (Homo sapiens (Human), UniProt P51812); experiment: Kinase selectivity panel: RSK2 (h); format: biochemical; settings: 10 μM in duplicate, read-out: % inhibition of control values
# Protocol: as §1, §2, §3, §4, §5, §6
# MYT1 kinase (h) = MYT1 kinase (h) (Homo sapiens (Human), UniProt Q99640); experiment: Kinase selectivity panel: MYT1 kinase (h); format: biochemical; settings: 10 μM in duplicate, read-out: % inhibition of control values
# Protocol: as §1, §2, §3, §4, §5, §6
# MNK2 (h) = MNK2 (h) (Homo sapiens (Human), UniProt Q9HBH9); experiment: Kinase selectivity panel: MNK2 (h); format: biochemical; settings: 10 μM in duplicate, read-out: % inhibition of control values
# Protocol: as §1, §2, §3, §4, §5, §6
# NEK1 (h) = NEK1 (h) (Homo sapiens (Human), UniProt Q96PY6); experiment: Kinase selectivity panel: NEK1 (h); format: biochemical; settings: 10 μM in duplicate, read-out: % inhibition of control values
# Protocol: as §1, §2, §3, §4, §5, §6
# JAK1 (h) = JAK1 (h) (Homo sapiens (Human), UniProt P23458); experiment: Kinase selectivity panel: JAK1 (h); format: biochemical; settings: 10 μM in duplicate, read-out: % inhibition of control values
# Protocol: as §1, §2, §3, §4, §5, §6
# mTOR kinase (h) (FRAP1) = mTOR kinase (h) (FRAP1) (Homo sapiens (Human), UniProt P42345); experiment: Kinase selectivity panel: mTOR kinase (h) (FRAP1); format: biochemical; settings: 10 μM in duplicate, read-out: % inhibition of control values
# Protocol: as §1, §2, §3, §4, §5, §6
# MSK1 (h) = MSK1 (h) (Homo sapiens (Human), UniProt O75582); experiment: Kinase selectivity panel: MSK1 (h); format: biochemical; settings: 10 μM in duplicate, read-out: % inhibition of control values
# Protocol: as §1, §2, §3, §4, §5, §6
# EphB4 kinase (h) = EphB4 kinase (h) (Homo sapiens (Human), UniProt P54760); experiment: Kinase selectivity panel: EphB4 kinase (h); format: biochemical; settings: 10 μM in duplicate, read-out: % inhibition of control values
# Protocol: as §1, §2, §3, §4, §5, §6
# MAPKAPK2 (h) = MAPKAPK2 (h) (Homo sapiens (Human), UniProt P49137); experiment: Kinase selectivity panel: MAPKAPK2 (h); format: biochemical; settings: 10 μM in duplicate, read-out: % inhibition of control values
# Protocol: as §1, §2, §3, §4, §5, §6
# FGFR1 kinase (h) = FGFR1 kinase (h) (Homo sapiens (Human), UniProt P11362); experiment: Kinase selectivity panel: FGFR1 kinase (h); format: biochemical; settings: 10 μM in duplicate, read-out: % inhibition of control values
# Protocol: as §1, §2, §3, §4, §5, §6
# GRK3/BARK2 (h) (ADRBK2) = GRK3/BARK2 (h) (ADRBK2) (Homo sapiens (Human), UniProt P35626); experiment: Kinase selectivity panel: GRK3/BARK2 (h) (ADRBK2); format: biochemical; settings: 10 μM in duplicate, read-out: % inhibition of control values
# Protocol: as §1, §2, §3, §4, §5, §6
# CaMK4 (h) = CaMK4 (h) (Homo sapiens (Human), UniProt Q16566); experiment: Kinase selectivity panel: CaMK4 (h); format: biochemical; settings: 10 μM in duplicate, read-out: % inhibition of control values
# Protocol: as §1, §2, §3, §4, §5, §6
# TRKA (h) = TRKA (h) (Homo sapiens (Human), UniProt P04629); experiment: Kinase selectivity panel: TRKA (h); format: biochemical; settings: 10 μM in duplicate, read-out: % inhibition of control values
# Protocol: as §1, §2, §3, §4, §5, §6
# EphB2 kinase (h) = EphB2 kinase (h) (Homo sapiens (Human), UniProt P29323); experiment: Kinase selectivity panel: EphB2 kinase (h); format: biochemical; settings: 10 μM in duplicate, read-out: % inhibition of control values
# Protocol: as §1, §2, §3, §4, §5, §6
# p38gamma kinase (h) = p38gamma kinase (h) (Homo sapiens (Human), UniProt P53778); experiment: Kinase selectivity panel: p38gamma kinase (h); format: biochemical; settings: 10 μM in duplicate, read-out: % inhibition of control values
# Protocol: as §1, §2, §3, §4, §5, §6
# p38alpha kinase (h) = p38alpha kinase (h) (Homo sapiens (Human), UniProt Q16539); experiment: Kinase selectivity panel: p38alpha kinase (h); format: biochemical; settings: 10 μM in duplicate, read-out: % inhibition of control values
# Protocol: as §1, §2, §3, §4, §5, §6
# smMLCK (h) (MYLK) = smMLCK (h) (MYLK) (Homo sapiens (Human), UniProt Q15746); experiment: Kinase selectivity panel: smMLCK (h) (MYLK); format: biochemical; settings: 10 μM in duplicate, read-out: % inhibition of control values
# Protocol: as §1, §2, §3, §4, §5, §6
# IKKepsilon (h) (IKBKE) = IKKepsilon (h) (IKBKE) (Homo sapiens (Human), UniProt Q14164); experiment: Kinase selectivity panel: IKKepsilon (h) (IKBKE); format: biochemical; settings: 10 μM in duplicate, read-out: % inhibition of control values
# Protocol: as §1, §2, §3, §4, §5, §6
# TAOK2 (TAO1) (h) = TAOK2 (TAO1) (h) (Homo sapiens (Human), UniProt Q9UL54); experiment: Kinase selectivity panel: TAOK2 (TAO1) (h); format: biochemical; settings: 10 μM in duplicate, read-out: % inhibition of control values
# Protocol: as §1, §2, §3, §4, §5, §6
# Src kinase (h) = Src kinase (h) (Homo sapiens (Human), UniProt P12931); experiment: Kinase selectivity panel: Src kinase (h); format: biochemical; settings: 10 μM in duplicate, read-out: % inhibition of control values
# Protocol: as §1, §2, §3, §4, §5, §6
# CK1alpha (h) = CK1alpha (h) (Homo sapiens (Human), UniProt P48729); experiment: Kinase selectivity panel: CK1alpha (h); format: biochemical; settings: 10 μM in duplicate, read-out: % inhibition of control values
# Protocol: as §1, §2, §3, §4, §5, §6
# DCAMKL1 (h) = DCAMKL1 (h) (Homo sapiens (Human), UniProt O15075); experiment: Kinase selectivity panel: DCAMKL1 (h); format: biochemical; settings: 10 μM in duplicate, read-out: % inhibition of control values
# Protocol: as §1, §2, §3, §4, §5, §6
# PCTAIRE1 kinase (h) = PCTAIRE1 kinase (h) (Homo sapiens (Human), UniProt Q00536); experiment: Kinase selectivity panel: PCTAIRE1 kinase (h); format: biochemical; settings: 10 μM in duplicate, read-out: % inhibition of control values
# Protocol: as §1, §2, §3, §4, §5, §6
# EphA4 kinase (h) = EphA4 kinase (h) (Homo sapiens (Human), UniProt P54764); experiment: Kinase selectivity panel: EphA4 kinase (h); format: biochemical; settings: 10 μM in duplicate, read-out: % inhibition of control values
# Protocol: as §1, §2, §3, §4, §5, §6
# human GSK-3β = human GSK-3β (Homo sapiens (Human), UniProt P49841); experiment: Activity on human GSK-3β, LANCE substrate phosphorylation assay; format: biochemical; settings: for inhibition at 10 µM: in duplicate, first screening assay; for IC50: compounds 1 to 15, LANCE assay, five concentrations 100 μM to 10 nM
# Protocol: Activity on human GSK-3β was assessed using the following methods (according to Meijer et al., Chem. Biol., 2003-10:1255-1266).
# In a first screening assay, compounds were tested in duplicate at a concentration of 10 μM.
# Human recombinant enzyme GSK-3β was incubated for 90 minutes at 22° C. in the presence of compounds or vehicle in a reaction buffer containing ATP plus 100 nM unphosphorylated specific substrate peptide (Ulight-[…] K-amide). Substrate phosphorylation was measured by LANCE technology (PerkinElmer, Conn., USA).
# In a second assay, the same compounds were assayed at five concentrations ranging from 100 μM to 10 nM with ten-fold dilutions in duplicate.
# The IC50 values (concentration causing a half maximal inhibition of control specific activity), reported in table 4, were determined by non-linear regression analysis of the inhibition curves generated with mean replicate values using Hill equation curve fitting.
# CHK1 (h) = CHK1 (h) (Homo sapiens (Human), UniProt O14757); experiment: Kinase selectivity panel: CHK1 (h); format: biochemical; settings: 10 μM in duplicate, read-out: % inhibition of control values
# Protocol: as §1, §2, §3, §4, §5, §6
# MYT1 kinase (h), sequence (Q99640 whole entry): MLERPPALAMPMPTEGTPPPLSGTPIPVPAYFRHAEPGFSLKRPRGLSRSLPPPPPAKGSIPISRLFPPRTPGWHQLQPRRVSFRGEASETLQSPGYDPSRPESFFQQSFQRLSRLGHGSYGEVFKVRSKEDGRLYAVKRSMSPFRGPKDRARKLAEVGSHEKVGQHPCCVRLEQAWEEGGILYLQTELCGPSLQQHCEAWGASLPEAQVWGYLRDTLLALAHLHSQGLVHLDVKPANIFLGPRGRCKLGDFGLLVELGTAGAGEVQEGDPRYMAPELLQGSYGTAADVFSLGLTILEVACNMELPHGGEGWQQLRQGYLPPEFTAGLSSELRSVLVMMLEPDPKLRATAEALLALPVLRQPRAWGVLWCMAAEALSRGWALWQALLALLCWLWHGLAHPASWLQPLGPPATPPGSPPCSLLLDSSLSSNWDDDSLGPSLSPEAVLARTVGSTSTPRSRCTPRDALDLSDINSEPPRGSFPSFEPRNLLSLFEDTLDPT
# MNK2 (h), sequence (Q9HBH9 whole entry): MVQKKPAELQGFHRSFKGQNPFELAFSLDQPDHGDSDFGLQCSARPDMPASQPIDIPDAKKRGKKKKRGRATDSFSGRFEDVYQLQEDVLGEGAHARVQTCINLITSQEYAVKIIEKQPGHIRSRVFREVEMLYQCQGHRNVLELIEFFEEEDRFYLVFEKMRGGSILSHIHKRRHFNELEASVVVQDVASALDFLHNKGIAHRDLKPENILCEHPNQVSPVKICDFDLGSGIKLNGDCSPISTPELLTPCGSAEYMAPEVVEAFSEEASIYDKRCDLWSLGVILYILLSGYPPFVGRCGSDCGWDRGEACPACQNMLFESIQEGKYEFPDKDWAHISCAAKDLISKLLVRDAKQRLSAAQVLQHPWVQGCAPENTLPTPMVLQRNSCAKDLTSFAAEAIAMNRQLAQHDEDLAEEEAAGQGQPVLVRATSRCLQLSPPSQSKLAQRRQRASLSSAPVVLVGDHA
# CaMK4 (h), sequence (Q16566 whole entry): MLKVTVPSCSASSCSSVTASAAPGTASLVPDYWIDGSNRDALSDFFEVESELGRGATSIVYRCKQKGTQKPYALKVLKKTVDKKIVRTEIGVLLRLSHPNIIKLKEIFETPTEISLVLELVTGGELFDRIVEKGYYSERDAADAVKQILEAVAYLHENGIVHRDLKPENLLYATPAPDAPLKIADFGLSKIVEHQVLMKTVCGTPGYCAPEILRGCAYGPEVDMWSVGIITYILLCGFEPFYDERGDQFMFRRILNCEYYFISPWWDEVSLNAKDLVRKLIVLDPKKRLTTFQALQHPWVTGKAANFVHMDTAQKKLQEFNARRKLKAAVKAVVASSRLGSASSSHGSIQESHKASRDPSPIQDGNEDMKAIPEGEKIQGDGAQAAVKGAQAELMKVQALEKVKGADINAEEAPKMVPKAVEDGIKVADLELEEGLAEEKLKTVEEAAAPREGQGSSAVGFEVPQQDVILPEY
# EphB2 kinase (h), sequence (P29323 19-1055): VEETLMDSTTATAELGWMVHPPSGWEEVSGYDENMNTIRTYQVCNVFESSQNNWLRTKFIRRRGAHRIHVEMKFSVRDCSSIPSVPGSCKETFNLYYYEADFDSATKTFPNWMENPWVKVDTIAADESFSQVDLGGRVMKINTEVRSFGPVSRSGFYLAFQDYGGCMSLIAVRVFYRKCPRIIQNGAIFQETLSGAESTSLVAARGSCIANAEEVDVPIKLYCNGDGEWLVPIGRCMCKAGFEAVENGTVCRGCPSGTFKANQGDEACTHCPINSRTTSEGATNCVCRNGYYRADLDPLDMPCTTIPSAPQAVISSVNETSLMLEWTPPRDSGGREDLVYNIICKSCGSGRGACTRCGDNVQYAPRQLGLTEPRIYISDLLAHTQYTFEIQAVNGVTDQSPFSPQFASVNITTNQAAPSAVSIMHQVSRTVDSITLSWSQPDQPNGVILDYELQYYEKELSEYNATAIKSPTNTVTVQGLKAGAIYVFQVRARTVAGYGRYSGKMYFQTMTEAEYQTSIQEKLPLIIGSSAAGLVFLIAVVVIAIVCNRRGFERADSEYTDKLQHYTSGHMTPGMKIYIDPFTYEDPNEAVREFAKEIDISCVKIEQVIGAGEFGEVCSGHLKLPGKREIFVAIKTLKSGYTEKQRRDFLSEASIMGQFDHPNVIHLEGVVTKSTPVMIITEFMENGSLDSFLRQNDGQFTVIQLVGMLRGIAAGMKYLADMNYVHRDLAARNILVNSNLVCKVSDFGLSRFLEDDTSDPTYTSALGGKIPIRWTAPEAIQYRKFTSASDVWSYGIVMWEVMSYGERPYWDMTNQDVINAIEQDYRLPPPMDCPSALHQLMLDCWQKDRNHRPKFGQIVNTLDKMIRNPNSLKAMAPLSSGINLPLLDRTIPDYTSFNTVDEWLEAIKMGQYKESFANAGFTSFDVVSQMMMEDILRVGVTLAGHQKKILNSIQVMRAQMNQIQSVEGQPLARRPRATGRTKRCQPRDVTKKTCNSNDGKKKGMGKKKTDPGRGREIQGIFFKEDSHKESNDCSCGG
# TAOK2 (TAO1) (h), sequence (Q9UL54 whole entry): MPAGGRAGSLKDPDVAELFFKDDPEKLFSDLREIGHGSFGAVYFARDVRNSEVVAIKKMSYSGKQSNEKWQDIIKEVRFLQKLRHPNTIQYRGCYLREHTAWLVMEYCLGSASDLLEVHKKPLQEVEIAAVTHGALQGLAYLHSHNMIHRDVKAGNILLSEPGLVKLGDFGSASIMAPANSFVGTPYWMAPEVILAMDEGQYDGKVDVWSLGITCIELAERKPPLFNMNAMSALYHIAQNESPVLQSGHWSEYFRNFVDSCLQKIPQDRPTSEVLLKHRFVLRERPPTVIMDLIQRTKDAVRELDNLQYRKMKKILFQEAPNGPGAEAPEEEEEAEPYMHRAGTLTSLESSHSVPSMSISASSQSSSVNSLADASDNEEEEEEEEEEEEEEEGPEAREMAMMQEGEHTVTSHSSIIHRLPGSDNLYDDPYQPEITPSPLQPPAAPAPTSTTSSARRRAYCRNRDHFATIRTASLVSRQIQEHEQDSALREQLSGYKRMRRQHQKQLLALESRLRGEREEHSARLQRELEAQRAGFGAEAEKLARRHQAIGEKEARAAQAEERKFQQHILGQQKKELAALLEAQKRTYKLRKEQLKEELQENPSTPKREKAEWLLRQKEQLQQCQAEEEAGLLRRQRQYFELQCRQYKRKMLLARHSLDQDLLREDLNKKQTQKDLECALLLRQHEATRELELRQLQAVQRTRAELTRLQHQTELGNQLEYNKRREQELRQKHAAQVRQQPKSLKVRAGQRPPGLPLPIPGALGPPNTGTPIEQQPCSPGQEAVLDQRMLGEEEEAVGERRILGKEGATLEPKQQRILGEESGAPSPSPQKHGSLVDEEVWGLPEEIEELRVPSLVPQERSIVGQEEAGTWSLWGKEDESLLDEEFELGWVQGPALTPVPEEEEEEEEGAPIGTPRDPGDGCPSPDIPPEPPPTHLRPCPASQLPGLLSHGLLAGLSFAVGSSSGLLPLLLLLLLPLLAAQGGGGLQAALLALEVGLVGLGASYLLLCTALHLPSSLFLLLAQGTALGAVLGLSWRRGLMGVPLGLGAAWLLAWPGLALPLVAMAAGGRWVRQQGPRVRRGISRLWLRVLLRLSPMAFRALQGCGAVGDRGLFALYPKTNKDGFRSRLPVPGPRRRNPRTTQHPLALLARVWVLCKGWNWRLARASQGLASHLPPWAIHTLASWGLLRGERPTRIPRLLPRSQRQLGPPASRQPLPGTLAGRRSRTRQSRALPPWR
# JAK1 (h), sequence (P23458 whole entry): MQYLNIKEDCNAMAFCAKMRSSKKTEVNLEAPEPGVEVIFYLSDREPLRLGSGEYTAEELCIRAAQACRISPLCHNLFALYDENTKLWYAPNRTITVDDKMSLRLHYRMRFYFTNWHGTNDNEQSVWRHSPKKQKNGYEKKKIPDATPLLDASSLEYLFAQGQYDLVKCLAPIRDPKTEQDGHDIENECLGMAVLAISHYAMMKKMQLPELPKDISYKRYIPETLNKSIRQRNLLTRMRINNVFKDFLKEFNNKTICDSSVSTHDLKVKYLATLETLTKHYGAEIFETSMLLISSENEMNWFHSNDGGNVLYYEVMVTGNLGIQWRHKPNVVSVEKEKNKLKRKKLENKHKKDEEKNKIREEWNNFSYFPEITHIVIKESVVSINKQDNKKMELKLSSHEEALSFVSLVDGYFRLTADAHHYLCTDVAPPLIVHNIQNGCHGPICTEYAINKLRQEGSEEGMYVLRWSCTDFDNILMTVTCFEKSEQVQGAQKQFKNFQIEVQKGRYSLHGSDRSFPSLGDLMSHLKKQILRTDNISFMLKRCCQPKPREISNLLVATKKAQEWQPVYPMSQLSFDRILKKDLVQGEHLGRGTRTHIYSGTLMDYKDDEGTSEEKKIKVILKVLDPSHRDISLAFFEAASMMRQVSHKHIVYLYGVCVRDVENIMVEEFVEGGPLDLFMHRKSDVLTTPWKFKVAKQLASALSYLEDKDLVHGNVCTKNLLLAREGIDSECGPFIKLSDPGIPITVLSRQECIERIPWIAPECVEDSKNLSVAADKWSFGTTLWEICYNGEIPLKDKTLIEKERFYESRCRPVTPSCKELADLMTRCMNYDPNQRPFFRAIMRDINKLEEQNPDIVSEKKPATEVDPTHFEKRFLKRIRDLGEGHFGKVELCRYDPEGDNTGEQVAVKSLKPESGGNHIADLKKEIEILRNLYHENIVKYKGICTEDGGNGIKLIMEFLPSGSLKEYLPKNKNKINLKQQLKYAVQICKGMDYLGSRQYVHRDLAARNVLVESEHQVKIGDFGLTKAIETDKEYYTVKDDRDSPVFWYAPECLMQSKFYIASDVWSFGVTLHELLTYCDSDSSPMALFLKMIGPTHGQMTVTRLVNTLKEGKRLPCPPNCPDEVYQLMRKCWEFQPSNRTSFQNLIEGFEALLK
Structure (SMILES),inhibition at 10 µM (PAK1 (h)),inhibition at 10 µM (RSK2 (h)),inhibition at 10 µM (MYT1 kinase (h)),inhibition at 10 µM (MNK2 (h)),inhibition at 10 µM (JAK1 (h)),inhibition at 10 µM (EphB4 kinase (h)),inhibition at 10 µM (MAPKAPK2 (h)),inhibition at 10 µM (FGFR1 kinase (h)),inhibition at 10 µM (GRK3/BARK2 (h) (ADRBK2)),inhibition at 10 µM (CaMK4 (h)),inhibition at 10 µM (TRKA (h)),inhibition at 10 µM (EphB2 kinase (h)),inhibition at 10 µM (p38alpha kinase (h)),inhibition at 10 µM (IKKepsilon (h) (IKBKE)),inhibition at 10 µM (TAOK2 (TAO1) (h)),inhibition at 10 µM (Src kinase (h)),inhibition at 10 µM (CK1alpha (h)),inhibition at 10 µM (DCAMKL1 (h)),inhibition at 10 µM (PCTAIRE1 kinase (h)),inhibition at 10 µM (EphA4 kinase (h)),further results
"COCCN1CCC(CNC(=O)c2n[nH]c3ccc(OC)cc23)CC1 [Compound 2, 5-methoxy-N-{[1-(2-methoxyethyl)-piperidin-4-yl]methyl}-1H-indazole-3-carboxamide]",0%,1%,1%,0%,0%,17%,0%,0%,0%,0%,0%,7%,0%,0%,26%,6%,12%,3%,71%,0%,% inhibition of control values (AMPKalpha): 19%; inhibition at 10 µM (MEK1/MAP2K1 (h)): 9%; inhibition at 10 µM (NEK1 (h)): 0%; inhibition at 10 µM (mTOR kinase (h) (FRAP1)): 2%; inhibition at 10 µM (MSK1 (h)): 16%; inhibition at 10 µM (p38gamma kinase (h)): 0%; inhibition at 10 µM (smMLCK (h) (MYLK)): 8%; inhibition at 10 µM (human GSK-3β): 85%; IC50 (human GSK-3β): 870 nM; inhibition at 10 µM (CHK1 (h)): 8%
"COCCN1CCC(CNC(=O)c2n[nH]c3ccc(-c4cccc(F)c4F)cc23)CC1 [Compound 8, 5-(2,3-difluorophenyl)-N-{[1-(2-methoxyethyl)piperidin-4-yl]methyl}-1H-indazole-3-carboxamide]",3%,4%,20%,4%,7%,0%,17%,8%,8%,4%,14%,2%,1%,3%,79%,0%,6%,0%,84%,0%,% inhibition of control values (AMPKalpha): 68%; inhibition at 10 µM (CHK1 (h)): 0%
"COc1ccc2[nH]nc(C(=O)NCC3CCN(CC(=O)O)CC3)c2c1 [Compound 1, [4-({[(5-methoxy-1H-indazol-3-yl)-carbonyl]amino}methyl)piperidin-1-yl]acetic acid]",1%,0%,0%,0%,0%,2%,0%,0%,0%,0%,1%,4%,0%,0%,3%,1%,0%,0%,22%,0%,% inhibition of control values (AMPKalpha): 16%; inhibition at 10 µM (MEK1/MAP2K1 (h)): 24%; inhibition at 10 µM (NEK1 (h)): 0%; inhibition at 10 µM (mTOR kinase (h) (FRAP1)): 2%; inhibition at 10 µM (MSK1 (h)): 7%; inhibition at 10 µM (p38gamma kinase (h)): 0%; inhibition at 10 µM (smMLCK (h) (MYLK)): 0%; inhibition at 10 µM (human GSK-3β): 92%; IC50 (human GSK-3β): 670 nM; inhibition at 10 µM (CHK1 (h)): 5%
COc1ccc2[nH]nc(C(=O)NCC3CCN(CCC(=O)O)CC3)c2c1 [Compound 3],0%,4%,2%,3%,4%,0%,0%,0%,0%,15%,0%,0%,0%,0%,0%,0%,0%,0%,0%,0%,inhibition at 10 µM (human GSK-3β): 94%; inhibition at 10 µM (CHK1 (h)): 0%
